“And” between values parts separate entries of the source, which are not always exact repeats. Identical values can stand only once. Like-named read-outs stand apart in the source and are kept apart here.
Tests used:
[1] = test system: cells transfected with empty vector; assay: Intracellular calcium (FLIPR) in HEK293 cells transfected with empty vector; type: cell-based; set-up: key to pEC50 empty vector: IA = inactive
Procedure: (§1) TRPV4 channel receptor cDNA was inserted into the expression vector pcDNA3.1 V5-His (Invitrogen, Carlsbad, Calif.). Wildtype HEK293 cells, or HEK293 cells transfected with the human TRPV4 channel receptor: pcDNA3.1 V5-His construct, or mock transfected cells, or bovine chondrocytes, were seeded into 96-well microtitre plates at 25,000 cells/well and cultured overnight. The cells were then incubated with 4 μM Fluo-3 (Fluo-3: Molecular Probes (Eugene, Oreg.)) for 2 hours at room temperature in the dark. Dye loaded cells were washed 4× with Tyrodes buffer: (NaCl, 145 mM; KCl, 2.5 mM; Hepes, 10 mM; Glucose, 10 mM; MgCl2, 1.2 mM; CaCl2, 1.5 mM), which also contained 0.2% BSA but not probenecid. Agonists and antagonists were also prepared in Tyrodes buffer. Cells were preincubated for 30 minutes with antagonist or buffer. Agonist addition and measurement of cytoplasmic calcium concentration was performed in the FLIPR (Smart, et al., (2000) Br. J. Pharmacol. 129, 227-230).

TRPV4 channel receptors = assay: Activation of TRPV4 channel receptors in cartilage explants; type: cell-based, human, rat, rabbit, mouse, canine, monkey, or bovine; conditions: compared with chondrocytes extracted from a cartilage matrix
wild type HEK293 cells = assay: Intracellular calcium (FLIPR) in wild type HEK293 cells; type: cell-based; set-up: key to pEC50 wild type: IA = inactive
Procedure: as §1

TRPVR1 = TRPVR1 (Homo sapiens, UniProt Q8NER1); type: cell-based; set-up: key to pEC50 TRPVR1: IA = inactive
Chain of TRPVR1 (Q8NER1 whole entry): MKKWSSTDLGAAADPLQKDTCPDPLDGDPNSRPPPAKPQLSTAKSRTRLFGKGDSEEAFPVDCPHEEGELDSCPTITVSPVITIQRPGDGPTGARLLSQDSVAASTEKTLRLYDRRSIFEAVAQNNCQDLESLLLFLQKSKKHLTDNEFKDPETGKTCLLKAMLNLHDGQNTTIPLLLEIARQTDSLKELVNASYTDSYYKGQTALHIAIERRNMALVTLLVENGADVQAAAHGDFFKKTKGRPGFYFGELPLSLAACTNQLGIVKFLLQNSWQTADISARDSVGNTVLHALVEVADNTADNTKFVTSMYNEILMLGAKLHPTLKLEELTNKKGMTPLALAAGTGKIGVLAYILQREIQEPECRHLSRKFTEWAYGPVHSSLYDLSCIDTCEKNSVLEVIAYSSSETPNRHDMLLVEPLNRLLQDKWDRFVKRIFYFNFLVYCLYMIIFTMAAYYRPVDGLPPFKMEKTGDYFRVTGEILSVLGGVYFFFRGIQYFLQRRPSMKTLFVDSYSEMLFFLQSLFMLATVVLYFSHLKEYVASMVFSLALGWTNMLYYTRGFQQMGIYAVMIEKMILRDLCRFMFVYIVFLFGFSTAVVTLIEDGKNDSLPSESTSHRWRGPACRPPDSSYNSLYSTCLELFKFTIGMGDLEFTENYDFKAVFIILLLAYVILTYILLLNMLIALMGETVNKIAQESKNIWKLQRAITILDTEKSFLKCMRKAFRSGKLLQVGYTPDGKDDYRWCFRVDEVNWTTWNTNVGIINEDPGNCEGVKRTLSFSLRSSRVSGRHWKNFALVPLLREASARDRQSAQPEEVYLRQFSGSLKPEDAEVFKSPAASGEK

TRPV4 channel receptor [2] = target: T1, TRPV4 channel receptor (Bos taurus, UniProt A0A8F4X677); assay: Ca2+ influx in bovine articular chondrocytes (FlexStation); type: cell-based
T1 construct: endogenous in cells; host or cells: bovine articular chondrocytes
T1 sequence (A0A8F4X677 1-871): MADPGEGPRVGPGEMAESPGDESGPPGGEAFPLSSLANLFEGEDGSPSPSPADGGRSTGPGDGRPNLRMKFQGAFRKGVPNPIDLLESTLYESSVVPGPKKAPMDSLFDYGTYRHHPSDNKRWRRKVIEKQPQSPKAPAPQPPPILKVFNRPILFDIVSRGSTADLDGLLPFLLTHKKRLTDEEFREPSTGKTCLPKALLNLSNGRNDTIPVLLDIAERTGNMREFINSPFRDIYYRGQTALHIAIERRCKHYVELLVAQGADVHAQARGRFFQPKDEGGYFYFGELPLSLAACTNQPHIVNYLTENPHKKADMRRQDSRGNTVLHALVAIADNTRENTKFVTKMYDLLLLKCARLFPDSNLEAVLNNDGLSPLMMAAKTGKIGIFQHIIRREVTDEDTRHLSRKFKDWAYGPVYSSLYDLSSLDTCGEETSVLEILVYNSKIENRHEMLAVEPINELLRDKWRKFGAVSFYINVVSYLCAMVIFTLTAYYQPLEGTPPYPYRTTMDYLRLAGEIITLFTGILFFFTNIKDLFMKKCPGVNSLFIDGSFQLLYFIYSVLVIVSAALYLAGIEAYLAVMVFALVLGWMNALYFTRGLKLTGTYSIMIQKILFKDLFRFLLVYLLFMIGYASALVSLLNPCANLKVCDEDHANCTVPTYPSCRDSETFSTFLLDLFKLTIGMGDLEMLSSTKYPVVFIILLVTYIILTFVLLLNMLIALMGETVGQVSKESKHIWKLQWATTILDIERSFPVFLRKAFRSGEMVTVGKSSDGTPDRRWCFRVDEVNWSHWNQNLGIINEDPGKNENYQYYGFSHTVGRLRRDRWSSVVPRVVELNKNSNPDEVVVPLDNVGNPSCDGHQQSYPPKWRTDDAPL

TRPV4 channel receptor [3] = target: T2, TRPV4 channel receptor (Homo sapiens, UniProt Q9HBA0); assay: Intracellular calcium (FLIPR, Fluo-3) in HEK293 cells transfected with human TRPV4 channel receptor; type: cell-based; set-up: V5-His (from the vector's name only); expressed in transfected cells; host or cells: HEK293
T2 sequence (Q9HBA0 whole entry): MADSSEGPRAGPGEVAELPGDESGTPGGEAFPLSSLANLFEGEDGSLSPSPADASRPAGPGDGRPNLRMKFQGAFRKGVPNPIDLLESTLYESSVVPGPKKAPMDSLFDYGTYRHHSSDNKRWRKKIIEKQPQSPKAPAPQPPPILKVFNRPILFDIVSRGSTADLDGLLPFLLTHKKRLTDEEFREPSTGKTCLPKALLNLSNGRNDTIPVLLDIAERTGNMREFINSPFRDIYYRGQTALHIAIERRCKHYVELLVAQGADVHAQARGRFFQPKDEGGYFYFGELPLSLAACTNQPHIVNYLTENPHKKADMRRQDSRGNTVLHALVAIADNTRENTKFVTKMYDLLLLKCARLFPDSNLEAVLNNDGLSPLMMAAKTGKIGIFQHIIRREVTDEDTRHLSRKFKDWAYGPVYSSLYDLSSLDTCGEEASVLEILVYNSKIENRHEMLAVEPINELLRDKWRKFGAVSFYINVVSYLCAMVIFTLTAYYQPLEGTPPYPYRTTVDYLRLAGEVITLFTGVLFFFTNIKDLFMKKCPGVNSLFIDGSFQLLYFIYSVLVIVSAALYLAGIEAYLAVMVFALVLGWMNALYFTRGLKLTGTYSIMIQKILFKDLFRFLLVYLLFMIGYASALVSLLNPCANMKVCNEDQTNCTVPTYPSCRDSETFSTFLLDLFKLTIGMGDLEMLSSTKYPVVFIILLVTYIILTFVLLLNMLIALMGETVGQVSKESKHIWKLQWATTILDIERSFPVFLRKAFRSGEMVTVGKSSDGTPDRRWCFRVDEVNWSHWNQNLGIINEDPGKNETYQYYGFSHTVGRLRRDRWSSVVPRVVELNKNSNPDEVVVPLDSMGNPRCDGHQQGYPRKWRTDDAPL
Procedure: as §1

TRPV4 channel receptor [4] = target: T2, TRPV4 channel receptor; assay: Ca2+ influx in human articular chondrocytes (FlexStation)
TRPV4 channel receptor [5] = target: TRPV4 channel receptor (Rattus norvegicus, UniProt Q9ERZ8); assay: Ca2+ influx in rat articular chondrocytes (FlexStation)
Chain of TRPV4 channel receptor (Rattus norvegicus, UniProt Q9ERZ8) (Q9ERZ8 whole entry): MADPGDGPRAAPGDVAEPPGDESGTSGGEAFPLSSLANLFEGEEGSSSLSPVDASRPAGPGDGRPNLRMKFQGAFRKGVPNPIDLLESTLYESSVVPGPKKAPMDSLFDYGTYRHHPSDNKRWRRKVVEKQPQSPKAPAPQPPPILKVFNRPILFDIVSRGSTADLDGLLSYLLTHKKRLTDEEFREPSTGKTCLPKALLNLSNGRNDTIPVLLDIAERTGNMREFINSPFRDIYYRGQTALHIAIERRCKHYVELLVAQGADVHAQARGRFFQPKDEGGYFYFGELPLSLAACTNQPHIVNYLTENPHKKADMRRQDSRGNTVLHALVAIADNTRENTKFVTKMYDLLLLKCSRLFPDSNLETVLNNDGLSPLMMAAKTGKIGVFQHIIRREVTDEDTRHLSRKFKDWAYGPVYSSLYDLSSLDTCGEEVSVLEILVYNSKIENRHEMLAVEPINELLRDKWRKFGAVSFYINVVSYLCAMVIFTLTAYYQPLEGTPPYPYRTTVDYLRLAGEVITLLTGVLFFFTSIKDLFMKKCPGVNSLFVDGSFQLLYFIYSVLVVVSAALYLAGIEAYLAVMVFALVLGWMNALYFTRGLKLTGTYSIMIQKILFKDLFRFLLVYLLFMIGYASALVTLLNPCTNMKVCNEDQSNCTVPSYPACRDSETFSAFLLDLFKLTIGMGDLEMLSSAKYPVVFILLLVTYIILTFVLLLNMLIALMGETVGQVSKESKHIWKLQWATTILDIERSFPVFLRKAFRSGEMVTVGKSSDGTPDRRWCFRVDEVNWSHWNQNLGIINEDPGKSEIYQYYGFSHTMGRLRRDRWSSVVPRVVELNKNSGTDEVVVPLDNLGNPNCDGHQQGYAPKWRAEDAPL

aggrecanase = assay: IL-1 induced aggrecanase production, chondrocyte-based aggrecanase peptide cleavage assay; type: cell-based, bovine
Source text: Aggrecanases (ADAMTSs), in conjunction with MMPs, degrade aggrecan, one of the major matrix components in articular cartilage. […] 2003; 48(1): 119-133].

TRPV4 channel receptor [6] = target: T2, TRPV4 channel receptor; assay: FLIPR assay; type: cell-based
human cartilage explants = assay: Aggrecan degradation (GAG, DMMB) in human cartilage explants; type: cell-based; conditions: Homo sapiens; estimated; 3-point concentration response
Procedure: Because the progression of aggrecan degradation in response to IL-1 in human cartilage is slower than in bovine cartilage, culture media was removed and replaced with fresh treatments every 2-3 days for approximately 3 weeks. For each timepoint, GAG levels were measured by DMMB assay, and cumulative data released over the entire 3 week culture period was calculated.
The data represents cumulative aggrecan degradation after 21 days in culture. […] In addition, Formula IId caused a concentration-dependent reduction of IL-1-induced aggrecan degradation. […] The estimated IC50's shown in Table 7 are very similar to those IC50's calculated from IL-1-stimulated bovine cartilage.

[7] = test system: bovine articular cartilage explants; assay: IL-1 induced aggrecan degradation (GAG release, DMMB) in bovine articular cartilage explants; type: cell-based; conditions: Bos taurus; IL-1-stimulated bovine cartilage
Source text: Articular cartilage explants isolated from newborn calves at slaughter were placed in culture, and aggrecan degradation was initiated through stimulation with IL-1. Since aggrecan degradation in this model is believed to be mediated by aggrecanase, TRPV4 channel receptor agonists that are active in the chondrocyte-based aggrecanase peptide assay (Example 11) may also be effective inhibitors in the cartilage explant assay, presumably by blocking aggrecanase production in these tissues.
At the end of the culture period, conditioned media were assayed for glycosaminoglycan (GAG) levels by colorimetric (DMMB) assay as a measure of aggrecan degradation. In bovine explants, IL-1 induced a profound increase in the amount of GAG released into the media during the 3 day culture. When cartilage was treated with IL-1 in combination with Formula IIc, there was a concentration-dependent reduction in GAG release as shown in Table 5.

[8] = target: T3, TRPV4 channel receptor endogenously expressed by chondrocytes (Bos taurus, UniProt A0A8F4X677); assay: Intracellular calcium (FLIPR) in bovine articular chondrocytes; type: cell-based
T3 construct: endogenous in cells; host or cells: bovine articular chondrocytes
T3 sequence (A0A8F4X677 1-871): as the sequence (A0A8F4X677 1-871) above
Procedure: as §1
The response was dependent upon extracellular calcium ions and was blocked by the channel blocker, ruthenium red.

[9] = intracellular calcium, mean ± s.e.mean, n = 3-5

SMILES: CCCCCCCCCC(=O)O[C@@H]1[C@@H](C)[C@@]2(O)[C@@H](C=C(CO)C[C@@]3(O)C(=O)C(C)=C[C@@H]23)[C@@H]2C(C)(C)[C@]12OC(=O)CCCCCCCCC [Formula 4αPDD, 4α-phorbol-12,13-didecanoate]
- effect on intracellular calcium in cells transfected with empty vector [1]: without effect
- pEC50 empty vector [1, 9]: IA
- potency and efficacy in activating TRPV4 channel receptors in cartilage explants (TRPV4 channel receptors): greatly diminished
- effect on intracellular calcium in wild type HEK293 cells (wild type HEK293 cells): without effect
- pEC50 wild type (wild type HEK293 cells; [9]): IA
- activation of VR1 (TRPVR1): did not activate VR1
- pEC50 TRPVR1 (TRPVR1; [9]): IA
- Ca2+ influx (TRPV4 channel receptor [2]; bovine chondrocytes): stimulated Ca^2+ influx
- intracellular calcium in HEK293-TRPV4 channel receptor cells (TRPV4 channel receptor [3]): increased intracellular calcium
- pEC50 TRPVR4 (TRPV4 channel receptor [3]; [9]): 5.73 ± 0.06
- Ca2+ influx (TRPV4 channel receptor [4]; human chondrocytes): stimulated Ca^2+ influx
- Ca2+ influx (TRPV4 channel receptor [5]; rat chondrocytes): stimulated Ca^2+ influx

SMILES: CC(C)C[C@H](NC(=O)c1cc2ccccc2s1)C(=O)NCCCN(C)S(=O)(=O)c1ccccc1C#N [Formula IIIb, N-{(1S)-1-[({3-[[(cyanophenyl)sulfonyl](methyl)amino]propyl}amino)carbonyl]-3-methylbutyl}-1-benzothiophene-2-carboxamide]
- IC50 (aggrecanase): 350 nM
- IC50 (aggrecanase; Bos taurus): 400 nM
- EC50 (TRPV4 channel receptor [6]): 700 nM
- IC50 (human cartilage explants): 500 nM
- BAC % eff (TRPV4 channel receptor [2]; bovine articular chondrocytes): (104%)
- EC50 (TRPV4 channel receptor [2]; bovine articular chondrocytes, read-out: BAC EC50): 260 nM
- Ca Influx - FLEX (bovine) % effic. (TRPV4 channel receptor [2]; bovine chondrocytes): 70%
- EC50 (TRPV4 channel receptor [2]; bovine chondrocytes, read-out: Ca Influx - FLEX (bovine) EC50): 290 nM
- IC50 [7]: 400 nM
- EC50 (TRPV4 channel receptor [4]; Ca Influx - FLEX (human) EC50, human chondrocytes): 280 nM
- EC50 (TRPV4 channel receptor [4]; HAC EC50, human articular chondrocytes, N = 2): 240 nM and 210 nM
- HAC % eff (TRPV4 channel receptor [4]; human articular chondrocytes, N = 2): 124% and 130%
- Ca Influx - FLEX (human) % effic. (TRPV4 channel receptor [4]; human chondrocytes): 78%
- EC50 (TRPV4 channel receptor [5]; RAC EC50, rat articular chondrocytes, N = 2): 370 nM and 700 nM
- RAC % eff (TRPV4 channel receptor [5]; rat articular chondrocytes, N = 2): 99% and 104%

SMILES: N.N.N.N.N.N.N.N.N.N.N.N.N.N.[Cl-].[Cl-].[Cl-].[Cl-].[Cl-].[Cl-].[O-2].[O-2].[Ru+3].[Ru+3].[Ru+4] [Ruthenium Red, reference compound]
- block of the response to 4α-PDD [8]: blocked
- reversal of the effects of 4α-PDD on Ca2+ influx (TRPV4 channel receptor [2]; bovine chondrocytes): reduce Ca^2+ influx down to baseline levels
- reversal of the effects of 4α-PDD on Ca2+ influx (TRPV4 channel receptor [4]; human chondrocytes): reduce Ca^2+ influx down to baseline levels
- reversal of the effects of 4α-PDD on Ca2+ influx (TRPV4 channel receptor [5]; rat chondrocytes): reduce Ca^2+ influx down to baseline levels

From patent publication US20070259856A1, “Method for Activating Trpv4 Channel Receptors by Agonists” (priority 2004, published 2007)
